In patent US10770169B2, “Method of providing a treatment to a subject based on a dynamic pathway map” (THE REGENTS OF THE UNIVERSITY OF CALIFORNIA, priority 2010, dated 2020):

Test system: panel of 55 breast cancer cell lines
Assay: Cell growth inhibition assay (Cell Titer Glo, 72 h, 9 doses; GI50, TGI, LC50)
Assay type: cell-based, human
Settings: value is the negative log10 of mol/L

In the case of `COc1cccc(-c2cc(=O)c3ccccc3o2)c1N` [PD 98059], the GI50 (AU565 cell line, censored GI50 values) is reported as 5.12, the GI50 (CAMA1 cell line, censored GI50 values) is reported as 4.65 and the GI50 (HCC1187 cell line, censored GI50 values) is reported as 5.56. It also gave a GI50 (HCC1937 cell line, censored GI50 values) of 4.50, a GI50 (cell line 600MPE) of 4.30 and a GI50 (cell line AU565) of 5.12. The GI50 (cell line BT20) was 4.04, the GI50 (cell line BT474) was 4.00 and the GI50 (cell line BT483) was 4.12. For the same compound, the GI50 (cell line CAMA1) was 4.65, the GI50 (cell line HCC70) was 4.30 and the GI50 (cell line HCC1143) was 4.00. It also gave a GI50 (cell line HCC1187) of 5.56, a GI50 (cell line HCC1395) of 4.00 and a GI50 (cell line HCC1419) of 4.20. For the same compound, the GI50 (cell line HCC1428) was 4.12, the GI50 (cell line HCC1806) was 4.30 and the GI50 (cell line HCC1937) was 4.50. The GI50 (cell line HCC1954) was 4.30, the GI50 (cell line HCC2185) was 4.55 and the GI50 (cell line MDAMB134V) was 4.12. The GI50 (cell line MDAMB175V) was 4.24, the GI50 (cell line MDAMB361) was 4.30 and the GI50 (cell line MDAMB468) was 4.32. It also gave a GI50 (cell line SKBR3) of 4.73, a GI50 (cell line SUM52PE) of 4.92 and a GI50 (cell line SUM149PT) of 4.44. The GI50 (cell line SUM159PT) was 4.30, the GI50 (cell line SUM185PE) was 4.88 and the GI50 (cell line SUM225CWN) was 4.42. The GI50 (cell line SUM1315MO) was 4.30, the GI50 (cell line T47D) was 4.30 and the GI50 (cell line UACC812) was 4.27. It also gave a GI50 (cell line ZR75B) of 4.00 and a GI50 (cell line ZR751) of 4.32.
